Laboratory results taken from patent publication US20120130699A1, “Method of molecular design and synthesis of therapeutic and preventive drugs” (priority 2010, published 2012).

How the values were obtained:
[1] = rat, in vivo
[2] = comparative characteristics: ED50 and therapeutic index; conditions: LD50 in rats / ED50
[3] = human, in vivo; cited from earlier work
cervical cancer = conditions: treatment of cervical cancer; cited from earlier work

## CC(=O)O[C@@]12CO[C@@H]1C[C@H](O)[C@@]1(C)C(=O)[C@H](O)C3=C(C)[C@@H](OC(=O)[C@H](O)[C@@H](NC(=O)OC(C)(C)C)c4ccccc4)C[C@@](O)([C@@H](OC(=O)c4ccccc4)[C@H]21)C3(C)C [Taxotere]
[1]
  Relative Therapeutic Index: 1
[2]
  Therapeutic Index: 3.42

## CN1CC[C@]23c4c5ccc(O)c4O[C@H]2[C@@H](O)C=C[C@H]3[C@H]1C5 [morphine]
[3]
  average effectiveness: 75%

## alpha-interferon
Cervical cancer
  average effectiveness: about 15%
